# Reference: PubChem BioAssay (NCI)
#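 The compound was tested at five concentrations on cells cultured in 96-well plates, with a 48-hour exposure period. TGI marks complete inhibition of growth.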 Where a SMILES comes first, the peptide text is derived from it. The star is where a group is joined. Boc = CC(C)(C)OC(=O)*
# Tests used:
# Test in all cases: growth of human tumour cells (NCI), 48 h
# [1] = system: HCC-2998 colon
# [2] = system: UACC-62 melanoma
# [3] = system: UACC-257 melanoma
# [4] = system: U251 CNS
# [5] = system: SW-620 colon
# [6] = system: SK-MEL-2 melanoma
# [7] = system: SK-OV-3 ovarian
# [8] = system: HCT-116 colon
# [9] = system: SK-MEL-28 melanoma
# [10] = system: MDA-N
# [11] = system: MALME-3M melanoma
# [12] = system: RPMI-8226 leukemia
# [13] = system: OVCAR-8 ovarian
# [14] = system: HL-60(TB) leukemia
# [15] = system: COLO 205 colon
# [16] = system: HS 578T breast
# [17] = system: HOP-92 NSCLC
# [18] = system: K-562 leukemia
Structure (SMILES),TGI [1] [µM],TGI [2] [µM],TGI [3] [µM],TGI [4] [µM],TGI [5] [µM],TGI [6] [µM],TGI [7] [µM],TGI [8] [µM],TGI [9] [µM],TGI [10] [µM],TGI [11] [µM],TGI [12] [µM],TGI [13] [µM],TGI [14] [µM],TGI [15] [µM],TGI [16] [µM],TGI [17] [µM],TGI [18] [µM]
CN[C@@H](C)[C@H](OP(=O)(O)OC1[C@@H](O)[C@H](O)C(O)[C@H](O)[C@@H]1O)c1ccccc1 (some centres not stated),> 100,> 100,> 100,> 100,> 100,> 100,> 100,> 100,> 100,> 100,> 100,> 100,> 100,> 100,> 100,> 100,> 100,
Fc1cc(-c2ncc(Cl)cc2Cl)c2cccccc1-2,> 100,> 100,> 100,,,,> 100,> 100,,> 100,> 100,,> 100,,> 100,> 100,,
CC12CC3(O)OC(O1)C1(COC(=O)c4ccccc4)C3CC21OC1OC(CO)C(O)C(O)C1O (configuration not stated),> 100,> 100,> 100,> 100,> 100,> 100,> 100,> 100,> 100,> 100,> 100,> 100,> 100,> 100,> 100,> 100,> 100,
COC(=O)c1ccc(CCc2cc(O)c(Br)cc2O)cc1,32.9,27.1,30.9,25.8,30.5,39.1,> 62.5,14.3,34.4,30,32.4,92.2,30.9,4.65,27.3,> 100,28.2,
CCOCC(NC(=O)C(CC(C)C)NC(=O)OC(C)(C)C)C(N)=O (stereo not drawn) (Boc-Leu-Ser(Et)-NH2; configuration not given here),,> 100,> 100,2.79,3.27,> 100,> 100,> 100,2.84,> 100,> 100,,> 100,> 100,> 100,> 100,> 100,
CC(=O)O[C@H]1CC[C@@]2(C)C(=CC[C@@H]3[C@@H]2CC[C@]2(C)c4c(cc(C#N)c(=N)n4C(C)=O)C[C@@H]32)C1,41.9,29.7,33.9,> 100,47.5,,34.5,28.5,37.3,52.9,31.8,,37.6,36,35.7,59.6,59.8,> 100
NC12CC3CC4C1CC1CC2C(C3)C4(N)C1,,> 100,> 100,> 100,> 100,> 100,> 100,> 100,> 100,> 100,> 100,,> 100,> 100,> 100,> 100,> 100,> 100
COc1cc2c3c(n(Cc4ccccc4)c(=O)c2cc1OC)-c1ccccc1C3=O,> 100,> 100,> 100,> 100,> 100,> 100,,> 100,> 100,> 100,> 100,> 100,> 100,> 100,> 100,> 100,> 100,> 100
Cc1ccc(Nc2nc(=O)[nH]c(=O)[nH]2)cc1N=[N+]=[N-],> 100,> 100,> 100,,> 100,> 100,> 100,> 100,,> 100,> 100,> 100,> 100,> 100,> 100,> 100,> 100,> 100
Nc1nc(N)c2nnn(C[C@H]3CC[C@@H](CO)C3)c2n1,> 100,> 100,> 100,> 100,> 100,,> 100,> 100,> 100,> 100,> 100,> 100,> 100,> 100,> 100,> 100,> 100,> 100
CC(=O)O[C@H]1C(=O)[C@@]2(C)[C@H]([C@H](OC(=O)c3ccccc3)[C@]3(O)C[C@H](OC(=O)[C@H](O)[C@@H](NC(=O)CC(C)C)c4ccccc4)C(C)=C1C3(C)C)[C@]1(OC(C)=O)CO[C@@H]1C[C@@H]2O,0.0636,> 10,> 10,> 10,> 10,> 10,,> 10,> 10,> 10,> 10,,> 3.24,0.00899,0.0112,0.00822,9.85,> 10
C/C(=N\O)c1cccc(Nc2nc3ccccc3c3occc23)c1,28.9,5.22,2.59,> 100,,,28.7,25.8,29.2,27.9,28.9,31.8,32.8,61.1,26.4,32.8,20.2,70.5
S=C(c1c[nH]c2ccccc12)N1CCN(c2ccccc2)CC1,,> 100,> 100,77.8,> 100,> 100,> 100,> 100,> 100,> 100,87.4,> 100,> 100,> 100,> 100,38.3,,> 100
Nn1c(SCC(=O)NCc2ccccc2)nc2ccccc2c1=O,> 100,> 100,> 100,> 100,> 100,> 100,,93.1,> 100,> 100,> 100,> 100,> 100,,> 100,> 100,> 100,> 100
